# Article PMC3004914, “Classification of Drugs Based on Properties of Sodium Channel Inhibition: A Comparative Automated Patch-Clamp Study” (PLoS ONE, 2010)
# Several values for one entry are separate records, joined by “and”; a condition that tells them apart may be missing. Equal entries are not always repeated. Where two headings read alike, the source gives them in different places.
# Columns and labels:
# [1] = target: T1, rNav1.2 sodium channels (HEK-293 cells) (Rattus norvegicus, UniProt P04775); assay: 5 Hz train protocol, QPatch automated patch-clamp; assay type: cell-based; details: for Rev (reversibility): Rev = A5/A1 after washout; for potency estimated from few doses: −90 mV, read-out: IC50;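 on UD (use-dependence of the inhibition): UD = (A3/A4)/(A1/A2) as ratios of peak amplitudes from Figure 1A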
# T1 sequence (P04775 whole entry): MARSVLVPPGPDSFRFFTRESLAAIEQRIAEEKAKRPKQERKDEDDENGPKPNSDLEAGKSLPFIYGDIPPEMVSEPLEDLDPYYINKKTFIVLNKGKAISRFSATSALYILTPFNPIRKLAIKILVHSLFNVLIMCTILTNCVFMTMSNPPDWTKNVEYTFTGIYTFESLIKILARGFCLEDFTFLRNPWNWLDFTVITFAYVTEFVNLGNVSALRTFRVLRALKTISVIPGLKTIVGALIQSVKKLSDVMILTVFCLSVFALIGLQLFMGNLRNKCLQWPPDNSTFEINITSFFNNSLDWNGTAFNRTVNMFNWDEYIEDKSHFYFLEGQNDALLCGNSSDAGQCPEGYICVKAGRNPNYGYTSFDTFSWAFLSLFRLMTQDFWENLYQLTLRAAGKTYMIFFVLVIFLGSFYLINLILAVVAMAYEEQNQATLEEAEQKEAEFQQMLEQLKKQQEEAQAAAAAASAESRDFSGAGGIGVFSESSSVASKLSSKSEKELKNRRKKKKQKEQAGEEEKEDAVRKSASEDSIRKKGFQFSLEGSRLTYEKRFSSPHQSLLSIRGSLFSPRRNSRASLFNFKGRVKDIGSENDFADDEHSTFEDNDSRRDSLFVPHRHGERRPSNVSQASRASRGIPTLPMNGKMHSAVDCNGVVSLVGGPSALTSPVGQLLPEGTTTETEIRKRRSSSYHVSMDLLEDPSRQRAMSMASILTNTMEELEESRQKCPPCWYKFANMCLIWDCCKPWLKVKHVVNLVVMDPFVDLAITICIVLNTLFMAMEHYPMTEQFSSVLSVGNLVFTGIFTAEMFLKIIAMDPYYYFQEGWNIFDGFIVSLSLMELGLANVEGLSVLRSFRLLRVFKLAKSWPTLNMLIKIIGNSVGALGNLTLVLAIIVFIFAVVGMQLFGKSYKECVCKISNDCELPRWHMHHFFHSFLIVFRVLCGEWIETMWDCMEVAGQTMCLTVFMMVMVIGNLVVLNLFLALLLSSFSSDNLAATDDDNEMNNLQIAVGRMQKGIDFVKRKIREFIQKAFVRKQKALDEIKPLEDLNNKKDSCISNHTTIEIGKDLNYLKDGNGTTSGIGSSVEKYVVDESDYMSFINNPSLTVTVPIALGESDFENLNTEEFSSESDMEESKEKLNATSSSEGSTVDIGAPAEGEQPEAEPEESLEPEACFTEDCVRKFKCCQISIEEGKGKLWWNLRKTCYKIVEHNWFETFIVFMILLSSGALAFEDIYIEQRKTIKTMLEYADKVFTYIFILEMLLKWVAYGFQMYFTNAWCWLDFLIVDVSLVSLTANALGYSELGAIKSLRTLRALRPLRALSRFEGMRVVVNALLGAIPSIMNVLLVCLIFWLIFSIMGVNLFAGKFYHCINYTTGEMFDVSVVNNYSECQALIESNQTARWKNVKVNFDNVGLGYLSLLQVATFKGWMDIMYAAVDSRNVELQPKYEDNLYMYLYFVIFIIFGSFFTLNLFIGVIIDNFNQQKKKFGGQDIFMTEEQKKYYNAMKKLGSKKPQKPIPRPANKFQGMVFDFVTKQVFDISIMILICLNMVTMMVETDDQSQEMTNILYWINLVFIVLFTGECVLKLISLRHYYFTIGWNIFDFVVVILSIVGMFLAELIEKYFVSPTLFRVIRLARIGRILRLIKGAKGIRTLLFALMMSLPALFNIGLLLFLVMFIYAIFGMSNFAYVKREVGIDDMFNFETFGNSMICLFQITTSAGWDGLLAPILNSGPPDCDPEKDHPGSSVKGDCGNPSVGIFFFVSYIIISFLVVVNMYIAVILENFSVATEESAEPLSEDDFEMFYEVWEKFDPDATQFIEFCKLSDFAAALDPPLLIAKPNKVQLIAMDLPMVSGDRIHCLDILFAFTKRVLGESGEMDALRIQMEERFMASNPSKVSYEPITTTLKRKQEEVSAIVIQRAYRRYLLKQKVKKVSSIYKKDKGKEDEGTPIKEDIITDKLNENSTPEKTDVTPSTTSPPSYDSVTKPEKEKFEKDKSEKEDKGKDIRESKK
# From the text: The dynamics of the onset and offset of inhibition was monitored using 5 Hz trains of five depolarizing pulses from a holding potential of −90 mV to −10 mV. The trains were repeated every 20 s. Drugs were applied after 10 control trains and 10 trains were delivered in the presence of the drug. The drug was then washed out, and the 10 trains were repeated.
# We measured inhibition (Inh; from which we calculated IC50 values as described in Materials and Methods), reversibility of inhibition (Rev) and use-dependence (UD), as well as time constant of onset (τon) and offset (τoff). The calculation of IC50, quantification of Rev and UD, and the determination of time constants are illustrated in Figure 1A. Because τon should be concentration-dependent if we assume a single binding reaction, we excluded it from the analyses. […] Comments on the interpretation of these properties (Rev, […] and UD) are in Results S1.
# (§1) A)–D) Peak amplitudes of evoked currents (5 Hz trains of 5 depolarizations from −90 to −10 mV) are plotted against time. Black dots: Control. Grey dots: Drug perfusion. […] Calculation of properties of inhibition is illustrated. […] E) Calculation of Kr and Ki values from steady-state availability curves.
# (§2) HEK-293 cells stably expressing rNav1.2 sodium channels were obtained from NeuroSearch (Ballerup, Denmark).
# (§3) Cells were automatically prepared for application to the chips (centrifuged and washed twice, then resuspended in extracellular solution) as described previously. Composition of the extracellular solution was: (in mM): 140 NaCl, 3 KCl, 1 CaCl2, 1 MgCl2, 0.1 CdCl2, 20 TEA-Cl, 5 HEPES, adjusted to pH 7.3, Osmolality: ∼320 mOsm.
# (§4) All electrophysiological experiments were conducted on Qpatch-16 or QPatch HT instruments using QPlate™ chips. For a detailed description of the instrument and the patch-clamp chips see [37], [38]. Data were sampled at a frequency of 25 kHz and filtered at 5 kHz. […] The amplifier was controlled and the data were collected by the Sophion QPatch client software. For initial data analysis the QPatch software was used. Built-in amplifiers provide an improved method for series resistance compensation. Leak subtraction (based on a standard P/n protocol) was used to subtract the capacitive component of currents.
# From this protocol we extracted five parameters, as illustrated in Figure 1A. We calculated inhibition of a single “cc” concentration: Inh = (amplitudectr – amplitudedrug)/amplitudectr.
# [2] = target: T1, rNav1.2 sodium channels (HEK-293 cells); assay: steady-state inactivation protocol (availability curves), QPatch automated patch-clamp; assay type: cell-based
# From the text: as §1
# Standard steady-state inactivation protocols were used to measure the shift of steady-state availability curve caused by the drugs. Currents were evoked by a 10 ms test pulse to −10 mV, preceded by 400 ms pre-pulses from −150 to −30 mV. […] Because the inhibition at hyperpolarized potentials (Inh−150), and the shift of the availability curves (ΔV1/2) are both concentration-dependent properties, we calculated affinities to hyperpolarized and depolarized states (“resting state affinity”: Kr, and “inactivated state affinity”: Ki), which, on the other hand, are concentration-independent characteristics of individual drugs. Calculation of Kr and Ki values are described in Materials and Methods, and illustrated in Figure 1E. State-dependence (SD) was quantified as the ratio Kr/Ki.
# as §2, §3, §4
# Inactivated affinity (Ki) values were calculated assuming a simple four-state model of drug binding and channel gating, using two separate methods: (1) from the shift of the availability curve (ΔV1/2), the slope of the Boltzmann fit of the availability curve (k) and Kr, using the formula described by Bean, Cohen and Tsien (Ki−ΔV1/2; see Figure 1E), or (2) from the apparent affinity (Kapp) at a certain pre-pulse potential, which was calculated from the inhibition (e.g. Inh−60) as described above, and the availability (h) at the same pre-pulse potential, using the formula from Kuo and Bean (Figure 1E). […] (Arithmetic means and SEM values are given in Results S7.)
# sodium channels = details: averaged literature data, cited from earlier work; for Ki: read-out: Ki−Lit; for Kd: read-out: Kr−Lit
# [3] = human plasma, cited from earlier work
# [4] = 100 μM, 500 s assigned where irreversible
# [5] = HEK293, 100 μM, −90 mV holding potential, 5 Hz train, read-out: Inh (inhibited fraction)
# [6] = HEK293, calculated from Inh at single concentration 100 μM, 5 Hz train
# [7] = HEK293, 100 µM, read-out: Inh (inhibited fraction) at holding potential −150 mV
# [8] = arithmetic mean, 100 µM, read-out: Ki-Kapp arith
# [9] = arithmetic mean, 100 µM, read-out: Ki-ΔV1/2 arith
# [10] = arithmetic mean, 100 µM, read-out: Kr arith
# [11] = geometric mean, from Inh at −150 mV, 100 µM, read-out: Kr (resting state affinity)
# [12] = geometric mean, from apparent affinity, 100 µM, read-out: Ki−Kapp (inactivated state affinity)
# [13] = geometric mean, from shift of availability curve, 100 µM, read-out: Ki−ΔV1/2 (inactivated state affinity)
# [14] = 30 μM, 500 s assigned where irreversible
# [15] = HEK293, calculated from Inh at single concentration 30 μM, 5 Hz train
# [16] = HEK293, 30 µM, read-out: Inh (inhibited fraction) at holding potential −150 mV
# [17] = arithmetic mean, 30 µM, read-out: Ki-Kapp arith
# [18] = arithmetic mean, 30 µM, read-out: Ki-ΔV1/2 arith
# [19] = geometric mean, from Inh at −150 mV, 30 µM, read-out: Kr (resting state affinity)
# [20] = geometric mean, from apparent affinity, 30 µM, read-out: Ki−Kapp (inactivated state affinity)
# [21] = geometric mean, from shift of availability curve, 30 µM, read-out: Ki−ΔV1/2 (inactivated state affinity)
compound,measurement,setting,value
"Nc1c(Br)cc(Br)cc1CN[C@H]1CC[C@H](O)CC1 [AMB, Ambroxol]",τon,[1]; 100 μM,5.74 s
same,UD (use-dependence of the inhibition),"[1]; 100 μM, 5 Hz train",1.24
same,τoff,[1]; [4],6.78 s
same,Rev (reversibility),[1]; 100 μM,0.81
same,inhibition at 100 µM,[1]; [5],51%
same,potency estimated from few doses,[1]; [6],95.9 µM
same,inhibition at 100 µM,[2]; [7],33%
same,Ki,[2]; [8],18.6 µM
same,Ki,[2]; [9],12.8 µM
same,Kd,[2]; [10],201 µM
same,Kd,[2]; [11],201 µM
same,Ki,[2]; [12],17.6 µM
same,Ki,[2]; [13],12.2 µM
same,Ki,sodium channels,8.17 µM
same,Kd,sodium channels,110 µM
"O=C(O)Cc1ccccc1Nc1c(Cl)cccc1Cl [DIC, Diclofenac]",τon,[1]; 100 μM,7.19 s
same,UD (use-dependence of the inhibition),"[1]; 100 μM, 5 Hz train",1.01
same,τoff,[1]; [4],26.43 s
same,Rev (reversibility),[1]; 100 μM,0.95
same,potency estimated from few doses,[1]; [6],561 µM
same,inhibition at 100 µM,[2]; [7],3%
same,Ki,[2]; [8],98.4 µM
same,Ki,[2]; [9],102 µM
same,Kd,[2]; [10],3300 µM
same,Kd,[2]; [11],3120 µM
same,Ki,[2]; [12],87.8 µM
same,Ki,[2]; [13],81 µM
same,plasma conc.,[3]; as printed in each cell,2 [44] µg/ml
same,plasma conc.,[3]; as printed in the µg/ml cell,6.287 µM
"O=C(NCC1CCCCN1)c1cc(OCC(F)(F)F)ccc1OCC(F)(F)F (stereo not shown) [FLC, Flecainide]",difference between Kr and IC50,[1],no difference
same,τoff,[1]; 300 μM,64.97 s
same,τon,"[1]; 300 μM, 3 s assigned where too short to be resolved",20.04 s
same,UD (use-dependence of the inhibition),"[1]; 300 μM, 5 Hz train",1.34
same,Rev (reversibility),[1]; 300 μM,0.57
same,use-dependence (UD),[1]; 5 Hz train,high
same,inhibition at 300 µM,"[1]; HEK293, 300 μM, −90 mV holding potential, 5 Hz train, read-out: Inh (inhibited fraction)",82%
same,potency estimated from few doses,"[1]; HEK293, calculated from Inh at single concentration 300 μM, 5 Hz train",67.6 µM
same,inhibition at 300 µM,"[2]; HEK293, 300 µM, read-out: Inh (inhibited fraction) at holding potential −150 mV",82%
same,Ki,"[2]; arithmetic mean, 300 µM, read-out: Ki-Kapp arith",6.1 µM
same,Ki,"[2]; arithmetic mean, 300 µM, read-out: Ki-ΔV1/2 arith",9.72 µM
same,Kd,"[2]; arithmetic mean, 300 µM, read-out: Kr arith",65 µM
same,Kd,"[2]; geometric mean, from Inh at −150 mV, 300 µM, read-out: Kr (resting state affinity)",64.7 µM
same,Ki,"[2]; geometric mean, from apparent affinity, 300 µM, read-out: Ki−Kapp (inactivated state affinity)",5.7 µM
same,Ki,"[2]; geometric mean, from shift of availability curve, 300 µM, read-out: Ki−ΔV1/2 (inactivated state affinity)",7.9 µM
same,Kr,[2]; in words,low Kr
same,Ki,sodium channels,5.55 µM
same,Kd,sodium channels,355 µM
"CN(C)CCCN1c2ccccc2CCc2ccccc21 [IMI, Imipramine]",Ki,sodium channels,0.89 µM
same,Kd,sodium channels,26.5 µM
same,plasma conc.,[3]; as printed in each cell,0.2 [44] µg/ml
same,plasma conc.,[3]; as printed in the µg/ml cell,0.631 µM
"CCc1nn(CCCN2CCN(c3cccc(Cl)c3)CC2)c(=O)n1CCOc1ccccc1 [NFZ, Nefazodone]",τon,[1]; 30 μM,8.75 s
same,UD (use-dependence of the inhibition),"[1]; 30 μM, 5 Hz train",1.22
same,τoff,[1]; [14],10.93 s
same,Rev (reversibility),[1]; 30 μM,0.51
same,inhibition at 30 µM,"[1]; HEK293, 30 μM, −90 mV holding potential, 5 Hz train, read-out: Inh (inhibited fraction)",39%
same,potency estimated from few doses,[1]; [15],46.4 µM
same,ΔV1/2 (shift of availability curve),[2]; 30 μM,−17.4 mV
same,inhibition at 30 µM,[2]; [16],9%
same,Ki,[2]; [17],1.1 µM
same,Ki,[2]; [18],1.05 µM
same,Kd,[2]; [19],567 µM
same,Ki,[2]; [20],0.92 µM
same,Ki,[2]; [21],0.87 µM
same,plasma conc.,[3]; as printed in each cell,1.52 [48] µg/ml
same,plasma conc.,[3]; as printed in the µg/ml cell,3.007 µM
"CNCCC(Oc1ccccc1OC)c1ccccc1 (stereo not shown) [NIS, Nisoxetine]",τon,[1]; 100 μM,20.71 s
same,UD (use-dependence of the inhibition),"[1]; 100 μM, 5 Hz train",1.33
same,τoff,[1]; [4],23.41 s
same,Rev (reversibility),[1]; 100 μM,0.66
same,inhibition at 100 µM,[1]; [5],57%
same,potency estimated from few doses,[1]; [6],75.7 µM
same,ΔV1/2 (shift of availability curve),[2]; 100 μM,−6.68 mV
same,inhibition at 100 µM,"[2]; HEK293, read-out: Inh (inhibited fraction) at holding potential −150 mV",34%
same,Ki,"[2]; Ki-Kapp arith, arithmetic mean, 100 µM",7.63 µM
same,Ki,"[2]; Ki-ΔV1/2 arith, arithmetic mean, 100 µM",19.5 µM
same,Ki,"[2]; Ki−Kapp (inactivated state affinity), geometric mean, from apparent affinity, 100 µM",7.1 µM
same,Ki,"[2]; Ki−ΔV1/2 (inactivated state affinity), geometric mean, from shift of availability curve, 100 µM",19.1 µM
same,Kd,"[2]; Kr (resting state affinity), geometric mean, from Inh at −150 mV, 100 µM",194 µM
same,Kd,"[2]; Kr arith, arithmetic mean, 100 µM",196 µM
same,plasma conc.,[3]; as printed in each cell,0.05 [46] µg/ml
same,plasma conc.,[3]; as printed in the µg/ml cell,0.159 µM
"Cc1nc2sccn2c(=O)c1CCN1CCC(=C(c2ccc(F)cc2)c2ccc(F)cc2)CC1 [RIT, Ritanserin]",τon,[1]; 30 μM,14.38 s
same,UD (use-dependence of the inhibition),"[1]; 30 μM, 5 Hz train",1.09
same,τoff,[1]; [14],22.28 s
same,Rev (reversibility),[1]; 30 μM,0.37
same,potency estimated from few doses,[1]; [15],23.6 µM
same,ΔV1/2 (shift of availability curve),[2]; 30 μM,−7.28 mV
same,inhibition at 30 µM,[2]; [16],13%
same,Ki,[2]; [17],6.52 µM
same,Ki,[2]; [18],7.69 µM
same,Kd,"[2]; arithmetic mean, 30 µM, read-out: Kr arith",225 µM
same,Kd,[2]; [19],206 µM
same,Ki,[2]; [20],6.1 µM and 6.13 µM
same,Ki,[2]; [21],7.1 µM
same,plasma conc.,[3]; as printed in each cell,0.14 [54] µg/ml
same,plasma conc.,[3]; as printed in the µg/ml cell,0.299 µM
